Test system: Melanoderm cultures (melanogenesis)
Assay: Melanoderm human skin equivalent lightening test (Hunter Lab L value)
Type: cell-based
Conditions: for Average L Value / L Value Range: 3 micromolar in media, dosed 10 times in 3 weeks, Hunter Lab L value, Minolta CR-10 chromameter; for Average L Value: averaged; for L Value Range: triplicate; for ΔL: difference in average Hunter Lab L value, treated vs untreated control cultures, 3 micromolar, 3 weeks
Source text: As used herein, ΔL is defined to mean the difference in Hunter Lab L values when comparing three, three (3) week old Mattek Melanoderm cultures that have not been treated with a composition comprising an agonist of A2A receptors to three, three (3) week old Mattek melanoderm cultures that have been treated with a composition comprising an agonist of A2A receptors wherein treated means: • (a) placing the melanoderm culture within a six (6) well tissue culture dish and set about 0.3 cm off of the tissue culture dish; • (b) subjecting the melanoderm culture to a 3 micromolar composition having an agonist of A2A adenosine receptors, the composition being one prepared from a 10 millimolar solution of A2A agonist and carrier (e.g., dimethyl sulfoxide) having been diluted with Dulbecco's Modified Eagle Media; and • (c) comparing the treated and untreated cultures by obtaining average L values for each with a Minolta CR-10 chromameter.
Commercially available human skin equivalents (Melanoderm from Mattek) were obtained for testing the impact of agonists of A2A adenosine receptors on melanogenesis. Solutions having a final concentration of three (3) micromolar were prepared from a 10 millimolar dimethyl sulfoxide stock solution and dosed ten (10) times in a three (3) week period into the media of the melanoderm cultures. The media consisted of commercially available basal Dulbecco's Modified Eagles media, prepared and treated in the manner set forth in the manufacture's instructions. For long term maintenance of the Melanoderms, the basal media was supplemented with bFGF and alpha MSH to stimulate melanocyte growth and melanogenesis. Each treatment condition was done in triplicate and three (3) sets were made for each treatment, as well as for a control (culture not treated with the agonist). The cultures were maintained at a temperature of about 37° C. and stored in a humidified, 5% CO2 incubator during the dosing period, but removed while being dosed.
After a three (3) week period, Hunter lab L value readings were taken for each condition (with a.Minolta CR-10 chromameter) and then averaged.

Compound | Average L Value | L Value Range | ΔL
CCNC(=O)[C@H]1O[C@@H](n2cnc3c(N)nc(NCCc4ccc(CCC(=O)O)cc4)nc32)[C@H](O)[C@@H]1O [Agonist 1, 2-para(2-carboxyethyl)phenethylamino-5′-N-ethyl carboxamido adenosine] | 31.9 | 30.3-33.3 | 1.7
Nc1nc(Nc2ccccc2)nc2c1ncn2[C@@H]1O[C@H](CO)[C@@H](O)[C@H]1O [Agonist 2, phenylaminoadenosine] | 43.8 | 43.2-44.2 | 5.2

— US20070183995A1, “Compounds useful as agonists of A2A adenosine receptors, cosmetic compositions with A2A agonists and a method for using the same” (Conopco, Inc., d/b/a Unilever, priority 2006, published 2007)
